What was measured:
IL-1β = experiment: Inhibition of IL-1β secretion in LPS stimulated peripheral blood mononuclear cells; format: cell-based; details: LPS stimulated human PBMC, 18 hours, ELISA; read-out: The median inhibition concentration (IC50, nM) of IL-1β
Procedure: (§1) To study the effect of compounds of the present invention in vitro, the inhibition of IL-1β and TNF-α secretion was determined using the following procedure:
(§2) Cytokine production was measured in the media from lipopolysaccharide (LPS) stimulated peripheral blood mononuclear cells. The mononuclear cells were isolated from human peripheral blood by Lymphoprep® (Nycomed, Norway) fractionation and suspended in RPMI 1640 (growth medium) with foetal calf serum (FCS, 2%), at a concentration of 5×10^5 cells/ml. The cells were incubated in 24-well tissue culture plates in 1 ml aliquots. Test compounds were dissolved in dimethylsulfoxide (DMSO, 10 mM) and were diluted with the medium. Compounds were added to the cells for 30 minutes, then LPS ([…] final concentration) was added. The plates were incubated for 18 hours, and the concentration of IL-1β and TNF-α in the medium was determined by enzyme-linked immunosorbent assays. The median inhibitory concentrations (IC50) of the compounds were calculated.

TNF-α [1] = experiment: Inhibition of TNF-α secretion in LPS stimulated peripheral blood mononuclear cells; format: cell-based; details: LPS stimulated human PBMC, 18 hours, ELISA; read-out: The median inhibition concentration (IC50, nM) of TNF-α
Procedure: as §1, §2

p38α MAP kinase = molecular target: T1, p38α MAP kinase (Homo sapiens, UniProt Q16539); experiment: p38α MAP kinase assay (immunoprecipitated FLAG-p38α from COS-1 cells, GST-ATF-2 substrate); format: biochemical
T1 construct: made in house; host or cells: COS-1 cells (transient co-transfection), immunoprecipitated with anti-FLAG M2 on Protein G Sepharose
T1 sequence (Q16539 whole entry): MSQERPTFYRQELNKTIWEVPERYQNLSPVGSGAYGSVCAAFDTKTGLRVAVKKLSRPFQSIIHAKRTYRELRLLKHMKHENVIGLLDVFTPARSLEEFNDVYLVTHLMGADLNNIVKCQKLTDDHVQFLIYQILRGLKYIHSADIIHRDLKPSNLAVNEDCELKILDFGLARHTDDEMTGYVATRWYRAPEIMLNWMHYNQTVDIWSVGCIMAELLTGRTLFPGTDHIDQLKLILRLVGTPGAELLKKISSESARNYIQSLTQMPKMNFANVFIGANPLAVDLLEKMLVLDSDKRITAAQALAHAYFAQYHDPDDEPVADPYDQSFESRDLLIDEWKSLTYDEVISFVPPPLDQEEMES
Procedure: COS-1 cells (derived from African green monkey kidney fibroblast-like cell containing wild-type T antigen under control of the SV40 promotor) were obtained from ATCC (ATCC no. CRL-1650) and grown in growth medium (DMEM without phenolred, 10% FCS, 2 mM L-glutamine, 100U penicillin and 100 μg streptomycin/ml) at 37° C. with 5% CO2. The cells were passaged twice a week by trypsination (0.25% trypsin, 1 mM EDTA in PBS) and were split 1:10. The medium was changed every second or third day. The cell line was regularly tested with the Mycoplasma PCR Primer Set (Stratagene) and found to be free of Mycoplasma. Tissue culture media, FCS, L-glutamine and penicillin and streptomycin are from Bribco BRL, Gaithersburg, Md., USA.
On day one COS-1 cells were seeded in 143 cm^2 petridish with a density of 2×10^4 celler/cm^2 in growth medium. At day 2 the cells were co-transfected with 5 μg (total) of experimental plasmid DNA, expressing the FLAG-p38α and FLAG-MKK6(EE). The plasmids were introduced into the COS-1 cells in serum-free medium using DOTAP™ (Boehringer-Mannheim, Mannheim, Germany). Plasmid DNA was prepared and purified using the QIAGEN EndoToxin-free Maxiprep-500 kit (Hilden, Germany). Briefly, DNA and DOTAP™ were mixed for exactly 15 min. at 37° C. in the CO2 incubator. […]

TNF-α [2] = experiment: In vivo screening model of LPS induced TNF-α response in mice; details: Mus musculus, po, 1 mg/kg p.o., 1 hour prior to LPS, plasma TNF-α 80-90 minutes after LPS, read-out: In vivo inhibition of LPS induced TNF-α production (in %)
Procedure: In Vivo Screening Model of LPS Induced TNF-α Response in Mice
To study the effect of compounds of the present invention in vivo, an in vivo screening model of LPS induced TNF-α response in mice was set up as follows: Groups of 6 mice (C3H/HeN, female, about 8 weeks (20 g), Bomholtgaard) were dosed with test compounds in suspension vehicle 1 hour prior to LPS administration (LPS from E. coli 055:B5, L-4005, Sigma). At time 0, the mice were dosed ip with 1.0 mg LPS/kg. After anesthetization with Hypnorm/Dormicum, the mice were bled from the periorbital venous plexus 80-90 minutes after LPS administration. The blood samples were sampled in EDTA stabilised tubes and centrifuged at 4000 rpm for 10 minutes at 4° C. The plasma level of TNF-α was analysed by ELISA. Compound 156 of WO 98/32730 was used as reference compound. The plasma level of TNF-α was determined using a sandwich ELISA. Microtiter plates were coated with a monoclonal antibody against mouse TNF-α, washed and blocked with a casein buffer. Samples of mouse TNF-α recombinant standards were added to the wells of the microtiter plates and incubated. All standards were tested in triplicate, all plasma samples in single. After sample and standard incubation, the plates were washed and incubated with biotinylated polyclonal secondary antibody against mouse TNF-α and washed. Enzyme conjugate was added to all wells and incubated. Substrate was added and the enzyme/substrate reaction stopped after 15 minutes at room temperature with 1M H2SO4. The colour development (OD) was measured at 450 nm on an ELISA reader and the background OD at 620 nm was subtracted. […] The results of the tested compounds are indicated as a percentage inhibition compared to an LPS treated control group. Compounds were tested at 1 mg/kg (p.o.). The Mann-Whitney test was used to compare drug treated groups to the LPS treated control group (p<0.05).

TNF-α [3] = experiment: as above; details: Mus musculus, ip, tested at 10 mg/kg i.p., plasma TNF-α 80-90 minutes after LPS, read-out: In vivo inhibition of LPS induced TNF-α production (in %)

| IC50 (IL-1β) | IC50 (TNF-α [1]) | p38 MAP kinase inhibition (p38α MAP kinase) | Compound | inhibition in vivo at 1 mg/kg (TNF-α [2]) | inhibition in vivo at 10 mg/kg (TNF-α [3]) |
| --- | --- | --- | --- | --- | --- |
| 1.3 nM | 0.5 nM | potent p38 MAP kinase inhibitor | Cc1ccc(-c2cn(CCO)nn2)cc1C(=O)c1ccc(Nc2ccc(F)cc2F)cc1Cl [Compound 102, [2-Chloro-4-(2,4-difluoro-phenylamino)-phenyl]-{5-[1-(2-hydroxy-ethyl)-1H-[1,2,3]triazol-4-yl]-2-methyl-phenyl}-methanone] | 94% |  |
| 5 nM | 0.3 nM |  | CCNC(=O)Cn1cc(-c2ccc(C)c(C(=O)c3ccc(Nc4ccc(F)cc4F)cc3Cl)c2)nn1 [Compound 112, 2-(4-{3-[2-Chloro-4-(2,4-difluoro-phenylamino)-benzoyl]-4-methyl-phenyl}-[1,2,3]triazol-1-yl)-N-ethyl-acetamide] | 49% |  |
| 1.4 nM | 0.9 nM |  | Cc1ccc(-c2cn(CCO)nn2)cc1C(=O)c1ccc(Nc2ccc(F)cc2)cc1Cl [Compound 122, [2-Chloro-4-(4-fluoro-phenylamino)-phenyl]-{5-[1-(2-hydroxy-ethyl)-1H-[1,2,3]triazol-4-yl]-2-methyl-phenyl}-methanone] | 96% |  |
| 0.8 nM | 0.5 nM |  | Cc1ccc(-c2cn(CC(O)CO)nn2)cc1C(=O)c1ccc(Nc2ccc(F)cc2)cc1Cl (centres unmarked) [Compound 124, [2-Chloro-4-(4-fluoro-phenylamino)-phenyl]-{5-[1-(2,3-dihydroxy-propyl)-1H-[1,2,3]triazol-4-yl]-2-methyl-phenyl}-methanone] | 77% |  |
| 1 nM | 0.5 nM |  | Cc1ccc(-c2cn(CC(N)=O)nn2)cc1C(=O)c1ccc(Nc2ccc(F)cc2)cc1Cl [Compound 125, 2-(4-{3-[2-Chloro-4-(4-fluoro-phenylamino)-benzoyl]-4-methyl-phenyl}-[1,2,3]triazol-1-yl)-acetamide] | 96% |  |
| 0.9 nM | 0.7 nM |  | Cc1ccc(-n2cc(CCO)nn2)cc1C(=O)c1ccc(Nc2ccc(F)cc2)cc1Cl [Compound 127, [2-Chloro-4-(4-fluoro-phenylamino)-phenyl]-{5-[4-(2-hydroxy-ethyl)-[1,2,3]triazol-1-yl]-2-methyl-phenyl}-methanone] | 94% |  |

Continued, compound first:

| Compound | IC50 (IL-1β) | IC50 (TNF-α [1]) | p38 MAP kinase inhibition (p38α MAP kinase) | inhibition in vivo at 1 mg/kg (TNF-α [2]) | inhibition in vivo at 10 mg/kg (TNF-α [3]) |
| --- | --- | --- | --- | --- | --- |
| Cc1ccc(-c2cn(CCNS(C)(=O)=O)nn2)cc1C(=O)c1ccc(Nc2ccc(F)cc2F)cc1Cl [Compound 109, N-[2-(4-{3-[2-Chloro-4-(2,4-difluoro-phenylamino)-benzoyl]-4-methyl-phenyl}-[1,2,3]triazol-1-yl)-ethyl]-methanesulfonamide] | 1.9 nM | 1.2 nM |  | 79% |  |
| Cc1ccc(-c2cn(CC(=O)N3CCCC3)nn2)cc1C(=O)c1ccc(Nc2ccc(F)cc2F)cc1Cl [Compound 114, 2-(4-{3-[2-Chloro-4-(2,4-difluoro-phenylamino)-benzoyl]-4-methyl-phenyl}-[1,2,3]triazol-1-yl)-1-pyrrolidin-1-yl-ethanone] | 0.4 nM | 0.3 nM |  | 86% |  |
| Cc1ccc(-c2cn(CC(=O)N3CCOCC3)nn2)cc1C(=O)c1ccc(Nc2ccc(F)cc2F)cc1Cl [Compound 115, 2-(4-{3-[2-Chloro-4-(2,4-difluoro-phenylamino)-benzoyl]-4-methyl-phenyl}-[1,2,3]triazol-1-yl)-1-morpholin-4-yl-ethanone] | 0.5 nM | 0.5 nM |  | 70% |  |
| Cc1ccc(-n2cc(C(C)(C)N)nn2)cc1C(=O)c1ccc(Nc2ccc(F)cc2F)cc1Cl [Compound 131, {5-[4-(1-Amino-1-methyl-ethyl)-[1,2,3]triazol-1-yl]-2-methyl-phenyl}-[2-chloro-4-(2,4-difluoro-phenylamino)-phenyl]-methanone] | 2.5 nM | 1.8 nM |  | 80% |  |
| Cc1ccccc1C(=O)c1ccc(Nc2ccccc2N)cc1Cl [Ref. comp. a, 4-(2-aminophenylamino)-2-chloro-2′-methylbenzophenone] |  |  |  |  | 23% |
